Experimental data as given in paper PMC7254386, “Antibacterial PEGylated Solid Lipid Microparticles for Cosmeceutical Purpose: Formulation, Characterization, and Efficacy Evaluation” (Materials, 2020).

Columns and labels:
[1] = RSV dissolution in different liquid lipophilic excipients; format: physicochemical
Source text: Lipophilic excipients must have peculiar features from a physicochemical perspective (i.e., solid at room temperature, chemically inert, high capacity to incorporate drugs, and capable of protecting the latter from physicochemical degradation phenomena) and a biological point of view (i.e., biocompatible, neither carcinogenic or teratogens nor allergenic, and poorly oxidizable) to use them for generating both pharmaceutical and cosmetic formulations. Here, 1-Hexadecanol (EXA) as non-toxic, biocompatible, biodegradable long-chain fatty alcohol was chosen as a solid lipid, as its surfactant characteristic allows this excipient to behave as an emulsifier agent, avoiding the need for further surfactant addition usually required for SLMs preparation using melt dispersion method. In addition, EXA was shown a certain effectiveness in the inhibition of S. aureus growth.

[2] = system: S. aureus; conditions: LB-agar as growth medium; cited from earlier work
[3] = set-up: method as in PMID 28659908; conditions: cited from earlier work
[4] = Preliminary RSV solubility tests in buffer solutions; format: physicochemical; conditions: 32 °C, mean ± SE (n = 3)
Method: […] […] The suspension was kept in a thermostatic water bath (Heidolph MR3001K Hotplate Stirrer with Heidolph EXT3001 Temperature Probe, Heidolph Instruments, Schwabach, Germany) at 32 °C and stirred for 120 min. The samples were then centrifuged for 15 min at 15.000 rpm (mySPIN™ 12 Mini Centrifuge, Thermo Fisher Scientific, Waltham, MA, USA), to remove any precipitate. The supernatant was collected, diluted in methanol, and quantified by a UV-Vis spectrophotometer. The experiments were performed in triplicate.

Oc1ccc(/C=C/c2cc(O)cc(O)c2)cc1 [RSV, 3,4′, 5-trihydroxy-trans-stilbene]
RSV dissolution (appearance) ([1]; Gelucire 62/05, RSV 5% w/w): Opalescent
RSV dissolution (appearance) ([1]; Gelucire 62/05, RSV 10% w/w): Opalescent
RSV dissolution (appearance) ([1]; Gelucire 62/05, RSV 15% w/w): Opalescent
RSV dissolution (appearance) ([1]; Glyceryl Monostearate, RSV 5% w/w): Opalescent
RSV dissolution (appearance) ([1]; Glyceryl Monostearate, RSV 10% w/w): Opalescent
RSV dissolution (appearance) ([1]; Glyceryl Monostearate, RSV 15% w/w): Opalescent
RSV dissolution (appearance) ([1]; Isostearyl Isostearate, RSV 5% w/w): Opalescent
RSV dissolution (appearance) ([1]; Isostearyl Isostearate, RSV 10% w/w): Opalescent
RSV dissolution (appearance) ([1]; Isostearyl Isostearate, RSV 15% w/w): Opalescent
RSV dissolution (appearance) ([1]; Labrafil M-1944, RSV 5% w/w): Opalescent
RSV dissolution (appearance) ([1]; Labrafil M-1944, RSV 10% w/w): Opalescent
RSV dissolution (appearance) ([1]; Labrafil M-1944, RSV 15% w/w): Opalescent
RSV dissolution (appearance) ([1]; Labrafil M-2130, RSV 5% w/w): Opalescent
RSV dissolution (appearance) ([1]; Labrafil M-2130, RSV 10% w/w): Opalescent
RSV dissolution (appearance) ([1]; Labrafil M-2130, RSV 15% w/w): Opalescent
RSV dissolution (appearance) ([1]; Labrasol, RSV 5% w/w): Clear
RSV dissolution (appearance) ([1]; Labrasol, RSV 10% w/w): Clear
RSV dissolution (appearance) ([1]; Labrasol, RSV 15% w/w): Slightly Opalescent
RSV dissolution (appearance) ([1]; Soy Lecithin, RSV 5% w/w): Opalescent
RSV dissolution (appearance) ([1]; Soy Lecithin, RSV 10% w/w): Opalescent
RSV dissolution (appearance) ([1]; Soy Lecithin, RSV 15% w/w): Opalescent
RSV dissolution (appearance) ([1]; Tefose 1500, RSV 10% w/w): Slightly Opalescent
RSV dissolution (appearance) ([1]; Tefose 1500, RSV 15% w/w): Opalescent
amount of RSV solubilized by Labrasol ([1]; liquid lipid Labrasol): up to 10 % w/w
Minimal Inhibitory Concentration (MIC) [2]: 1000 µg/mL
partition coefficient (LogP) [3]: 3.09
solubility at 120 min ([4]; PBS buffer solution with BSA 5% w/v, pH 7.4, thermodynamic from solid, PBS + BSA 5%): 442 ± 35 µg/mL
solubility at 120 min ([4]; PBS buffer solution with DMSO 10% v/v, pH 7.4, aqueous with cosolvent or surfactant or cyclodextrin, thermodynamic from solid, PBS + DMSO 10%): 194 ± 10 µg/mL
solubility at 120 min ([4]; PBS buffer solution with α-CD 0.5% w/v, pH 7.4, aqueous with cosolvent or surfactant or cyclodextrin, thermodynamic from solid, PBS + α-CD 0.5%): 153 ± 8 µg/mL
solubility at 120 min ([4]; PBS buffer solution with β-CD 2% w/v, pH 7.4, aqueous with cosolvent or surfactant or cyclodextrin, thermodynamic from solid, PBS + β-CD 2%): 886 ± 11 µg/mL
solubility at 120 min ([4]; citrate buffer solution with β-CD 2% w/v, aqueous with cosolvent or surfactant or cyclodextrin, thermodynamic from solid, Citrate buffer (pH 6.2) + β-CD 2%): 803 ± 3 µg/mL
